{
  "source": "ChEMBL document CHEMBL3745645",
  "about": "“Synthesis, in vitro antitumor activity, dihydrofolate reductase inhibition, DNA intercalation and structure-activity relationship studies of 1,3,5-triazine analogues” (Bioorg Med Chem Lett, 2016)",
  "key": {"K562 [1]": {"test_system": "K562", "assay": "Cytotoxicity against human K562 cells at 10 uM after 48 hrs by SRB assay", "type": "functional", "settings": "K562, 48 h, read-out: GI"}, "[2]": {"assay": "Cytotoxicity against human NCI-ADR-RES cells at 10 uM after 48 hrs by SRB assay", "type": "functional", "settings": "read-out: GI"}, "HL-60(TB)": {"test_system": "HL-60(TB)", "assay": "Cytotoxicity against human HL-60(TB) cells at 10 uM after 48 hrs by SRB assay", "type": "functional"}, "[3]": {"assay": "Cytotoxicity against human HCT15 cells at 10 uM after 48 hrs by SRB assay", "type": "functional", "settings": "HCT-15, 48 h, read-out: GI"}, "[4]": {"assay": "Cytotoxicity against human DU145 cells after 48 hrs by SRB assay", "type": "functional", "settings": "DU-145, 48 h, read-out: LC50 (the source's name)"}, "[5]": {"assay": "Cytotoxicity against human SW620 cells at 10 uM after 48 hrs by SRB assay", "type": "functional", "settings": "SW-620, 48 h, read-out: GI"}, "[6]": {"assay": "Cytotoxicity against human SF295 cells at 10 uM after 48 hrs by SRB assay", "type": "functional", "settings": "SF-295, 48 h, read-out: GI"}, "[7]": {"assay": "Cytotoxicity against human HCC2998 cells at 10 uM after 48 hrs by SRB assay", "type": "functional", "settings": "HCC 2998, 48 h, read-out: GI"}, "A549 [8]": {"test_system": "A549", "assay": "Cytotoxicity against human A549 cells at 10 uM after 48 hrs by SRB assay", "type": "functional", "settings": "A549, 48 h, read-out: GI"}, "786-0": {"test_system": "786-0", "assay": "Cytotoxicity against human 786-0 cells after 48 hrs by SRB assay", "type": "functional", "settings": "786-0, 48 h, pooled result: one value given for 8 cell lines, strains, targets or settings"}, "Calf thymus DNA": {"test_system": "Calf thymus DNA", "assay": "Binding affinity to calf thymus DNA by UV-vis spectrometric analysis", "type": "nucleic-acid assay", "settings": "Bos taurus"}, "[9]": {"assay": "Cytotoxicity against human COLO205 cells at 10 uM after 48 hrs by SRB assay", "type": "functional", "settings": "COLO 205, 48 h, read-out: GI"}, "[10]": {"assay": "Cytotoxicity against human LOXIMVI cells after 48 hrs by SRB assay", "type": "functional", "settings": "LOX IMVI, pooled result: one value given for 9 cell lines, strains, targets or settings"}, "SK-MEL-2": {"test_system": "SK-MEL-2", "assay": "Cytotoxicity against human SK-MEL-2 cells at 10 uM after 48 hrs by SRB assay", "type": "functional", "settings": "SK-MEL-2, 48 h, read-out: GI"}, "[11]": {"assay": "Cytotoxicity against human RPMI8226 cells at 10 uM after 48 hrs by SRB assay", "type": "functional", "settings": "RPMI-8226, 48 h, read-out: GI"}, "M14": {"test_system": "M14", "assay": "Cytotoxicity against human M14 cells at 10 uM after 48 hrs by SRB assay", "type": "functional", "settings": "M14, 48 h, read-out: GI"}, "[12]": {"assay": "Cytotoxicity against human HOP92 cells at 10 uM after 48 hrs by SRB assay", "type": "functional", "settings": "HOP-92, 48 h, read-out: GI"}, "[13]": {"assay": "Cytotoxicity against human SF268 cells after 48 hrs by SRB assay", "type": "functional", "settings": "SF-268, 48 h, pooled result: one value given for 6 cell lines, strains, targets or settings"}, "A549 [14]": {"test_system": "A549", "assay": "Cytotoxicity against human A549 cells after 48 hrs by SRB assay", "type": "functional", "settings": "A549, 48 h, pooled result: one value given for 8 cell lines, strains, targets or settings"}, "TK-10": {"test_system": "TK-10", "assay": "Cytotoxicity against human TK10 cells at 10 uM after 48 hrs by SRB assay", "type": "functional"}, "[15]": {"assay": "Cytotoxicity against human PC3 cells after 48 hrs by SRB assay", "type": "functional", "settings": "PC-3, 48 h"}, "[16]": {"assay": "Cytotoxicity against human LOXIMVI cells at 10 uM after 48 hrs by SRB assay", "type": "functional", "settings": "LOX IMVI, read-out: GI"}, "[17]": {"assay": "Cytotoxicity against human Hs 578T cells at 10 uM after 48 hrs by SRB assay", "type": "functional", "settings": "read-out: GI"}, "K562 [18]": {"test_system": "K562", "assay": "Cytotoxicity against human K562 cells after 48 hrs by SRB assay", "type": "functional", "settings": "K562, 48 h"}, "MDA-MB-435": {"test_system": "MDA-MB-435", "assay": "Cytotoxicity against human MDA-MB-435 cells at 10 uM after 48 hrs by SRB assay", "type": "functional", "settings": "MDA-MB-435, 48 h, read-out: GI"}, "MCF7": {"test_system": "MCF7", "assay": "Cytotoxicity against human MCF7 cells after 48 hrs by SRB assay", "type": "functional", "settings": "MCF7, 48 h, pooled result: one value given for 6 cell lines, strains, targets or settings"}, "[19]": {"assay": "Cytotoxicity against human OVCAR5 cells at 10 uM after 48 hrs by SRB assay", "type": "functional", "settings": "OVCAR-5, 48 h, read-out: GI"}, "CCRF-CEM": {"test_system": "CCRF-CEM", "assay": "Cytotoxicity against human CCRF-CEM cells after 48 hrs by SRB assay", "type": "functional"}, "[20]": {"assay": "Cytotoxicity against human UACC257 cells at 10 uM after 48 hrs by SRB assay", "type": "functional", "settings": "UACC-257, 48 h, read-out: GI"}, "BT-549": {"test_system": "BT-549", "assay": "Cytotoxicity against human BT549 cells at 10 uM after 48 hrs by SRB assay", "type": "functional"}, "ACHN": {"test_system": "ACHN", "assay": "Cytotoxicity against human ACHN cells at 10 uM after 48 hrs by SRB assay", "type": "functional", "settings": "read-out: GI"}, "[21]": {"assay": "Cytotoxicity against human OVCAR4 cells at 10 uM after 48 hrs by SRB assay", "type": "functional", "settings": "OVCAR-4, 48 h, read-out: GI"}, "[22]": {"settings": "pooled result: one value given for 2 cell lines, strains, targets or settings"}, "[23]": {"settings": "pooled result: one value given for 6 cell lines, strains, targets or settings"}},
  "note": "Calls of active or inactive are those of the source. No cut-off for these calls is given here.",
  "data": [
    {"molecule": "Cc1nc2cc(Nc3nc(Nc4ccc(F)cc4)nc(-c4ccc(Cl)cc4)n3)ccc2n1Cc1ccccc1", "values": [
      {"measurement": "inhibition of growth at 10 µM", "setting": "K562 [1]", "value": 66.3, "unit": "%"},
      {"measurement": "inhibition of growth at 10 µM", "setting": "[2]", "value": 41, "unit": "%"},
      {"measurement": "growth inhibition (GI)", "setting": "HL-60(TB)", "value": "Active"},
      {"measurement": "inhibition of growth at 10 µM", "setting": "[3]", "value": 35.6, "unit": "%"},
      {"measurement": "CC50", "setting": "[4]", "value": "> 100", "unit": "µM"},
      {"measurement": "inhibition of growth at 10 µM", "setting": "[5]", "value": 31.9, "unit": "%"},
      {"measurement": "inhibition of growth at 10 µM", "setting": "[6]", "value": 9.63, "unit": "%"},
      {"measurement": "inhibition of growth at 10 µM", "setting": "[7]", "value": 18.4, "unit": "%"},
      {"measurement": "inhibition of growth at 10 µM", "setting": "A549 [8]", "value": 42.6, "unit": "%"},
      {"measurement": "GI50", "setting": "786-0", "value": 11.5, "unit": "µM"},
      {"measurement": "LC50 (concentration killing 50% of cells)", "setting": "786-0", "value": "> 100", "unit": "µM"},
      {"measurement": "TGI", "setting": "786-0", "value": 45.4, "unit": "µM"},
      {"measurement": "Ka", "setting": "Calf thymus DNA", "value": 3.39, "unit": "×10⁴ /M"},
      {"measurement": "inhibition of growth at 10 µM", "setting": "[9]", "value": 38.2, "unit": "%"},
      {"measurement": "GI50", "setting": "[10]", "value": 6.36, "unit": "µM"},
      {"measurement": "LC50", "setting": "[10]", "value": 80.6, "unit": "µM"},
      {"measurement": "TGI", "setting": "[10]", "value": 31.7, "unit": "µM"},
      {"measurement": "inhibition of growth at 10 µM", "setting": "SK-MEL-2", "value": 16.4, "unit": "%"},
      {"measurement": "inhibition of growth at 10 µM", "setting": "[11]", "value": 99.8, "unit": "%"},
      {"measurement": "inhibition of growth at 10 µM", "setting": "M14", "value": 41.7, "unit": "%"},
      {"measurement": "inhibition of growth at 10 µM", "setting": "[12]", "value": 65, "unit": "%"},
      {"measurement": "GI50", "setting": "[13]", "value": 8.44, "unit": "µM"},
      {"measurement": "LC50 (concentration killing 50% of cells)", "setting": "[13]", "value": 61.4, "unit": "µM"},
      {"measurement": "TGI", "setting": "[13]", "value": 48.6, "unit": "µM"},
      {"measurement": "GI50", "setting": "A549 [14]", "value": 8.37, "unit": "µM"},
      {"measurement": "LC50", "setting": "A549 [14]", "value": 83.8, "unit": "µM"},
      {"measurement": "TGI", "setting": "A549 [14]", "value": 38.6, "unit": "µM"},
      {"measurement": "growth inhibition (GI)", "setting": "TK-10", "value": "inactive"},
      {"measurement": "LC50", "setting": "[15]", "value": "> 100", "unit": "µM"},
      {"measurement": "GI50", "setting": "[15]; [22]", "value": 13.5, "unit": "µM"},
      {"measurement": "TGI", "setting": "[15]; [22]", "value": "> 100", "unit": "µM"},
      {"measurement": "inhibition of growth at 10 µM", "setting": "[16]", "value": 23.4, "unit": "%"},
      {"measurement": "inhibition of growth at 10 µM", "setting": "[17]", "value": 24.6, "unit": "%"},
      {"measurement": "LC50", "setting": "K562 [18]", "value": "> 100", "unit": "µM"},
      {"measurement": "inhibition of growth at 10 µM", "setting": "MDA-MB-435", "value": 33.8, "unit": "%"},
      {"measurement": "GI50", "setting": "MCF7", "value": 6.46, "unit": "µM"},
      {"measurement": "LC50 (concentration killing 50% of cells)", "setting": "MCF7", "value": "> 100", "unit": "µM"},
      {"measurement": "TGI", "setting": "MCF7", "value": 50.8, "unit": "µM"},
      {"measurement": "inhibition of growth at 10 µM", "setting": "[19]", "value": 7.71, "unit": "%"},
      {"measurement": "LC50", "setting": "CCRF-CEM", "value": "> 100", "unit": "µM"},
      {"measurement": "GI50", "setting": "CCRF-CEM; [23]", "value": 3.39, "unit": "µM"},
      {"measurement": "TGI", "setting": "CCRF-CEM; [23]", "value": 9.55, "unit": "µM"},
      {"measurement": "inhibition of growth at 10 µM", "setting": "[20]", "value": 31.1, "unit": "%"},
      {"measurement": "growth inhibition (GI)", "setting": "BT-549", "value": "inactive"},
      {"measurement": "inhibition of growth at 10 µM", "setting": "ACHN", "value": 28.4, "unit": "%"},
      {"measurement": "inhibition of growth at 10 µM", "setting": "[21]", "value": 41.4, "unit": "%"}
    ]}
  ]
}
